Earlier results, collected in paper PMC10238757 (Pharmacology Research & Perspectives, 2023).

Experiments:
HIV-1 = details: cited from earlier work
[1] = at higher doses; cited from earlier work

SMILES	potency in vitro (HIV-1)	absorption behaviour [1]
C=C(C)[C@@H]1CC[C@]2(NCCN3CCS(=O)(=O)CC3)CC[C@]3(C)[C@H](CC[C@@H]4[C@@]5(C)CC=C(C6=CC[C@@](CF)(C(=O)O)CC6)C(C)(C)[C@@H]5CC[C@]43C)[C@@H]12 [GSK3640254, reference compound]	low nanomolar	plateaus in absorption
C=C(C)[C@@H]1CC[C@]2(NCCN3CCS(=O)(=O)CC3)CC[C@]3(C)[C@H](CC[C@@H]4[C@@]5(C)CC=C(c6ccc(C(=O)O)cc6)C(C)(C)[C@@H]5CC[C@]43C)[C@@H]12 [GSK3532795]	–	plateaus in absorption
